Results from patent publication US7018654B2, “Pharmaceutical composition containing an active agent in an amino acid copolymer structure” (New River Pharmaceuticals Inc., priority 1999, dated 2006).

Assays:
[1] = test system: cultured human amniocytes; conditions: 0.8% solution in alpha-MEM without glutamine, with insulin and transferrin, pH 7.2
[2] = In vitro stability of glutamine by incubation in 0.2 M phosphate buffer at pH 9.0; format: physicochemical; conditions: pH 9.0, 37° C., same conditions
Protocol: The product of Example 2 was tested for stability and compared to monomeric glutamine by incubation in 0.2 M phosphate buffer at pH 9.0 as described by Price and Greenstein (J. Biol. Chem. vol. 180. p. 209, 1949), incorporated herein by reference.

[3] = Stability of Gln measured by production of free ammonia in 0.2 M phosphate buffer; format: physicochemical

Stability of Gln, production of free ammonia (result in words) [3] | Compound | Growth of cultured cells with no addition of monomeric L-glutamine [1] | Stability of glutamine (result in words) [2]
– | Glutamic Acid/Glutamine Co-Polymer [Example 19] | support growth of cultured human amniocytes, through multiple passages | –
almost completely de-amidated | NC(=O)CC[C@H](N)C(=O)O [monomeric glutamine, glutamine] | – | extensive degradation to ammonia and pyrrolidonecarboxylic acid
